Test results from patent publication US8716558B2, “Method of altering glycosylation of proteins in response to nojirimycin glucuronide in a plant cell expressing glucuronidase” (Marker Gene Technologies, Inc., priority 1999, dated 2014).

What was measured:
[1] = test system: wild-type potato plants; assay: Negative selection of potato, wild type; format: in vivo; details: M0627 3.5 mg/L, M0630 10 mg/L, M0632 10 mg·L, M0792 5 mg/L; MS media, soil or daily spray
[2] = test system: Arabidopsis thaliana Landsberg erecta wild type (WT); assay: Plant growth on MS media containing conjugates, wild type; format: in vivo
From the text: (§1) Arabidopsis thaliana Landsberg erecta is a wild type (WT) strain derived from the Landsberg ecotype. Arabidopsis thaliana Landsberg erecta strain DW150-307 (DW) is a transgenic strain produced using the method of Blazquez et al., 1997, Development 124:3835-3844. The transgenic DW strain is homozygous for the LFY::GUS insertion and thus contains GUS under control of the full length LFY promoter that expresses E. coli β-glucuronidase. Expression of GUS in this strain is developmentally regulated, showing the highest levels 9 days after germination (at the onset of meristem floral initiation under a long-day, 16 h. light regime), but having basal levels in vegetative apices throughout secondary growth. Accordingly, GUS expression leads to production of the E. coli β-glucuronidase enzyme in floral and to a lesser extent in shoot meristem tissues of the plant. Isogenic homozygous plant strains were kindly provided by Dr. Detlef Weigel, Department of Biology, The Salk Institute, San Diego, Calif.
(§2) Wild type (WT) and recombinant (DW) plants were grown in MS media containing 0-100 ug/mL of conjugates M0630, M0632, or M0792 (prepared as set forth herein). All plants were grown at 23° C. in long-day (16 hours light/8 hours dark) cycles, under a mixture of Cool White and Gro-Lux/WS fluorescent lights (Osram, Sylvania) and sterile conditions.

[3] = test system: GUS-positive potato (May queen) plants; assay: Negative selection of potato transformants; format: in vivo; details: M0627 3.5 mg/L, M0630 10 mg/L, M0632 10 mg·L, M0792 5 mg/L; MS media, soil or daily spray
Procedure: Potato (May queen) pieces with sprouts are planted in a mixture of vermiculite and compost (1:1). After two weeks, the apical meristem culture of the grown sprouts is removed to obtain the sterile seedling plants. Sterile plants are then placed in MS liquid medium containing 2% sucrose, pH 5.7 (80 ml) and incubated with rotation at 25° C. in a well-lighted place to induce rooting. After two weeks, the rooted plants are transferred into MS liquid medium for microtuber induction (MS medium, 8% sucrose, pH 5.7, 40 ml medium in 100 ml Erlenmeyer flask) in the dark for 28 days. The microtubers are then cut into pieces (2 mm) and transferred into agar medium for regeneration (MS medium, 2% sucrose, 1 mg/l zeatin, 0.1 mg/l IAA, 1% agar). The pieces of the microtuber pre-cultured for two days are then immersed in an Agrobacterium tumefaciens strain LBA4404 suspension containing the binary plasmid pBI121 (Clontech, Palo Alto, Calif.) for transformation. The plasmid pBI121 carries the neomycin phosphotransferase (NPTII) gene and β-glucuronidase (GUS) gene. In this vector, the neomycin phosphotransferase (NPTII) gene is under the control of the nopaline synthase (nos) promoter and the terminator from nopaline synthase (nos) which provides polyadenylation signal. The neomycin phosphotransferase (NPTII) gene confers kanamycin resistance. The β-glucuronidase (GUS) activity is under the control of the cauliflower mosaic virus ^35S promoter, providing constitutive expression in all tissues, and the terminator from nopaline synthase (nos) provides polyadenylation. Agrobacterium tumefaciens was grown overnight at 28° C. in liquid YEP medium (Sambrook J., Fritsch E. F., Maniatis T., Molecular Cloning: a laboratory manual. 2nd ed., Cold Spring Harbor, N.Y., 1989) supplemented with 25 mg/l rifampicin, 50 mg/l streptomycin, and 50 mg/l kanamycin. An overnight culture is diluted with liquid TE medium to 4×10^8 cells/ml for transformation. A filter paper is placed on the agar medium, over the microtuber pieces and the co-culture is continued for 48 hours. The transfected microtubers are then washed 4-5 times in sterile distilled water to decrease the concentration of Agrobacterium tumefaciens and with a cefotaxime (250 mg/l) solution for 20 min, and then again with sterile distilled water (4-5 times). The microtubers are then transferred into an agar screening medium (MS medium, 2% sucrose, 1 mg/l zeatin, 1 mg/l IAA, 1% agar, 50 mg/l kanamycin, 500 mg/l Claforan, 1% agar). After about two months growth, the divided shoots are transferred into a rooting induction medium and then into a microtuber induction medium. The obtained GUS-positive plants are used for the analysis.

[4] = test system: wild-type tomato plants; assay: Negative selection of tomato, wild type; format: in vivo; details: M0627 3.5 mg/L, M0630 10 mg/L, M0632 10 mg·L, M0792 5 mg/L; MS media, soil or daily spray
[5] = test system: GUS-positive tomato (minitomato) plants; assay: Negative selection of tomato transformants; format: in vivo; details: M0627 3.5 mg/L, M0630 10 mg/L, M0632 10 mg·L, M0792 5 mg/L; MS media, soil or daily spray
Procedure: Tomato (cultivar, minitomato) seeds are surface-sterilized with 70% ethanol (30 seconds) and 2% sodium hypochlorite (15 minutes), and then placed on a plant hormone-free MS agar medium. The seeds are cultured at […] 23° C. in long-day (16 hours light/8 hours dark) cycles, under a mixture of Cool White and Gro-Lux/WS fluorescent lights (Osram, Sylvania) and sterile conditions. The cotyledons are taken from the obtained sterile seedlings and then placed on an MS agar medium containing 2 mg/l of Zeatin and 0.1 mg/l of IAA (regeneration medium) in 9 cm Petri dishes, and cultured under the same conditions as those described above for 2 days.
Agrobacterium tumefaciens strain LBA4404 suspension containing the binary plasmid pBI121 (Clontech, Palo Alto, Calif.) is used for transformation. The plasmid pBI121 carries the neomycin phosphotransferase (NPTII) gene and β-glucuronidase (GUS) gene. In this vector, the neomycin phosphotransferase (NPTII) gene is under the control of the nopaline synthase (nos) promoter and the terminator from nopaline synthase (nos) which provides polyadenylation signal. The neomycin phosphotransferase (NPTII) gene confers kanamycin resistance. The β-glucuronidase (GUS) activity is under the control of the cauliflower mosaic virus ^35S promoter, providing constitutive expression in all tissues, and the terminator from nopaline synthase (nos) provides polyadenylation. Agrobacterium tumefaciens is grown overnight at 28° C. in liquid YEP medium (Sambrook J., Fritsch E. F., Maniatis T., Molecular Cloning: a laboratory manual. 2nd ed., Cold Spring Harbor, N.Y., 1989) supplemented with 25 mg/l rifampicin, 50 mg/l streptomycin, and 50 mg/l kanamycin. An overnight culture is diluted with liquid TE medium to 4×10^8 cells/ml for transformation.
The cotyledons cultured for two days are collected in a sterilized Petri dish, and the Agrobacterium suspension is added to them to cause infection. Superfluous Agrobacterium suspension is removed from the cotyledons by using a sterilized filter paper. After further removing excess Agrobacterium suspension, a sterilized filter paper is placed on the medium in the Petri dish in order to prevent rapid propagation of Agrobacterium. The infected cotyledons are placed on this media and co-cultured for 24 hours.
The transfected cotyledons are then transferred into an agar screening medium (MS medium, 2% sucrose, 1 mg/l zeatin, 1 mg/l IAA, 1% agar, 50 mg/l kanamycin, 500 mg/l claforan, 1% agar) to select the GUS transformant plants. The regenerated shoots are then transferred into a new selecting medium to conduct further selection.

[6] = test system: Arabidopsis thaliana Landsberg erecta strain DW150-307 (DW); assay: Plant growth on MS media containing conjugates, LFY::GUS recombinant; format: in vivo; details: for floral tissue response of DW plants upon inflorescence / vegetative growth of DW plants: MS media containing conjugate
From the text: as §1, §2

[7] = test system: E. coli CSH36/S90C and CSH22/S90C co-culture; assay: Co-culture selection, colony growth on X-gal plates; format: cell-based; details: 30 μg/ml chloramphenicol or 42 μg/ml M0165, plated on X-gal
Procedure: E. coli strains CSH36/S90C and CSH22/S90C were grown in co-culture and tested with the chloramphenicol galactoside pro-drug (M0165) described in Example 15, to show lack of translocation of drug released in β-galactosidase expressing cells to other cells in the culture, and therefore selection for the lacZ-cells. CSH36 is a constitutive mutant for lacZ and therefore produces β-galactosidase regardless of induction conditions. CSH22 is a deletion mutant for lacZ and is therefore uninducible. Each strain individually and both strains together were innoculated into 10 mL aliquots of M9 minimal media and grown shaking at 37° C. overnight. Overnight cultures (500 μL) were transferred into 10 mL fresh M9 media and grown to logarithmic phase for 4 hours prior to beginning the experiments. 1 mL of this culture was transferred to 10 ml fresh M9 media containing 30 μg/ml chloramphenicol, 42 μg/ml M0165, or no additions, and returned to the incubator. Growth curves were generated by removing aliquots of each culture at 30 minute intervals and reading absorbance at 420 nm. Remaining portions of the cultures were allowed to grow overnight, and final absorbance readings were taken. […] Plates were incubated at 37° C. for 48 hours, then evaluated for growth of white (indicating lacZ −, CSH22 cells) and blue (indicating lacZ +, CSH 36 cells) colonies.

[8] = test system: Arabidopsis thaliana Landsberg erecta strain DW150-307; assay: Growth and glycoprotein glycosylation in GUS-containing plants; format: in vivo; details: for carbohydrate patterns of glycoproteins compared with control seeds: ANTS and 1,5-EDANS labeling, HPLC and PAGE; for decrease in number of inflorescence stems (average) / plant growth: M0809 22 mg/L or M0872 25 mg/L in MS agar medium
Procedure: Arabidopsis thaliana Landsberg erecta strain DW150-307 plants were propagated from seeds. Seeds were surface-sterilized with 70% ethanol (30 seconds) and 2% sodium hypochlorite (15 minutes), and then placed on a plant hormone-free MS agar medium. After incubation at 4° C. for 2 days, the seeds were cultured at 25° C. for one week while the daylight hours were kept to be 16 hours. The cotyledons were taken from the obtained sterile seedlings and then placed on an MS agar medium containing either deoxynojirimycin b-D-glucuronide methyl ester (M0809) (22 mg/L) or deoxymannonojirimycin b-D-glucuronidetriacetate, methyl ester (M0872) (25 mg/L) (regeneration medium in 9 cm Petri dish), and cultured under the same conditions as those described above for 6 days. Plants were transplanted into fresh media containing the same concentrations of M0809 or M0872 as above, and growth continued for an additional 19 days, until full seed pods were obtained. Plants grew normally on media containing the M0809 or M0872, except that the number of inflorescence stems was decreased (an average of 50%) in the treated plant specimens. Seed pods, floral and stem tissues from these plants were harvested, and seeds dried briefly in vacuo (10 mm Hg, 1 hour). Seeds were crushed, and carbohydrate content of all tissues analyzed using the ANTS and 1,5-EDANS labeling systems, followed by HPLC analysis and PAGE electrophoretic analysis.

[9] = 100 ug/mL in MS media (highest concentration)
[10] = lower concentrations in MS media

SMILES	effect on wild-type plants [1]	growth of wild type plants [2, 9]	growth of wild type plants [2, 10]	effect on GUS-positive plants [3]	effect on wild-type plants [4]	effect on GUS-positive plants [5]	floral tissue response of DW plants upon inflorescence [6]	vegetative growth of DW plants [6]	colony growth after overnight co-culture [7]	growth phenotype of DW150-307 plants ([6]; 1 ug/mL for 32 days)	germination and survival of DW plants ([6]; media application, above the lowest concentration)	carbohydrate patterns of glycoproteins compared with control seeds [8]	decrease in number of inflorescence stems (average) [8] [%]	plant growth [8]
COC(=O)C1OC(Oc2ccc(=O)[nH]n2)C(OC(C)=O)C(OC(C)=O)C1OC(C)=O [Example M0627, Maleic Hydrazide Beta-D-Glucuronide Triacetate, Methyl Ester]	does not affect growth or morphology	slightly slower	comparable growth to the blank controls	selective ablation	does not affect growth or morphology	selective ablation	–	–	–	–	–	–	–	–
COC(=O)C1OC(Oc2c(Br)cc(C#N)cc2Br)C(OC(C)=O)C(OC(C)=O)C1OC(C)=O [Example M0630, bromoxynil-β-D-glucuronic acid methyl ester triacetate]	does not affect growth or morphology	–	–	selective ablation	does not affect growth or morphology	selective ablation	floral tissues became chlorotic (brown) and became dehydrated and ablated	normal vegetative growth until inflorescence initiation	–	–	–	–	–	–
O=C(N[C@H](CO)[C@H](O)c1ccc([N+](=O)[O-])cc1)C(Cl)Cl [chloramphenicol, reference compound]	–	–	–	–	–	–	–	–	no growth of either cell type	–	–	–	–	–
COC(=O)C1OC(Oc2c(Br)cc(C#N)cc2Br)C(O)C(O)C1O [Example M0632, Bromoxynil-β-D-glucuronic acid methyl ester]	does not affect growth or morphology	slightly slower	comparable growth to the blank controls	selective ablation	does not affect growth or morphology	selective ablation	–	–	–	callus formation	either did not germinate or were ablated shortly after germination	–	–	–
COC(=O)C1OC(OCC2NCC(O)C(O)C2O)C(O)C(O)C1O [Example M0809, deoxynojirimycin b-D-glucuronide methyl ester]	–	–	–	–	–	–	–	–	–	–	–	modified in structure	50	grew normally
COC(=O)C1OC(OCC2NCC(O)C(O)C2O)C(OC(C)=O)C(OC(C)=O)C1OC(C)=O [Example M0872, deoxymannonojirimycin b-D-glucuronidetriacetate, methyl ester]	–	–	–	–	–	–	–	–	–	–	–	modified in structure	50	grew normally
COC(=O)C1OC(OC(CC2CC(=O)NC(=O)C2)C2CC(C)CC(C)C2=O)C(OC(C)=O)C(OC(C)=O)C1OC(C)=O [Example M0792, Cycloheximide-β-D-glucuronic acid methyl ester triacetate]	does not affect growth or morphology	slightly slower	comparable growth to the blank controls	selective ablation	does not affect growth or morphology	selective ablation	floral tissues became chlorotic (brown) and became dehydrated and ablated	normal vegetative growth until inflorescence initiation	–	–	–	–	–	–
